Laboratory results reported in patent US20140242093A1, “METHODS AND COMPOSITIONS FOR MODULATING THE INNATE IMMUNE RESPONSE AND/OR MYOGENESIS IN A MAMMALIAN SUBJECT” (FRED HUTCHINSON CANCER RESEARCH CENTER, priority 2011, published 2014).

Columns and labels:
FSHD muscle cells = assay: DUX4-fl mRNA RT-PCR in FSHD muscle cells treated with MAO inhibitors; type: cell-based, human; conditions: for abundance of DUX4-fl mRNA: quantitative RT-PCR, FIG. 4
Description: Middle panel is a no RT control and bottom panel is a GAPDH loading control.

[1] = test system: control human primary myoblasts; assay: Expression microarray of primary myoblasts transduced with lentivirus carrying DUX4-fl, DUX4-s or GFP
Protocol: Primary human myoblasts were collected and cultured as previously described (Snider et al., 2010). Primary myoblasts were maintained at or below 70% confluency for proliferation. For differentiation, cells were allowed to reach 95-100% confluency in growth medium. Once confluency was reached, the cells were changed to differentiation medium (F10 media supplemented with 1% horse serum, 10 μg/mL insulin, and 10 μg/mL transferrin, penicillin/streptomycin) and maintained for 4 days. Human RD cells were grown in DMEM in 10% bovine calf serum (Hyclone) and penicillin/streptomycin. The primary myoblasts were transduced with lentivirus carrying DUX-fl, DUX4- or GFP (MOI=15).
Expression microarrays were performed on the transduced cells at 24 hours after transduction as follows. […] Samples were analyzed by Illumina Human Whole Genome microarrays. Probe intensities were corrected, normalized, and summarized by the Lumi package of Bioconductor (Du et al., 2008). Differentially expressed genes were identified by the LIMMA package of Bioconductor (Wettenhall and Smyth, 2004). Gene set enrichment analysis (GSEA) was performed using the Bioconductor GOstats package (Falcon and Gentleman, 2007).

HCT116 cells = assay: RT-PCR of DUX4-fl and cancer testis antigens in HCT116 cells treated with azacytidine; type: cell-based, human
Protocol: The relative expression of the CTA in each row was measured by RT-PCR and represented as high (light shading) or low (dark shading).

FSHD fibroblasts = assay: DUX4 mRNA decay with cycloheximide in FSHD fibroblasts with inducible MyoD; type: cell-based, human; conditions: 38 hours in differentiation conditions, MyoD induction
Protocol: FSHD fibroblasts expressing low amounds of DUX4 mRNA were stably transduced with a beta-estradiol inducible MyoD so that addition of beta-estradiol will convert them to skeletal muscle, which after 96 hours of induction increases the steady-state levels of the DUX4 mRNA and activates expression of the MyoD target Mgn. […] Washout of the chx results in the rapid loss of the DUX4 mRNA, disappearing between 2 and 8 hrs of washout. The loss of DUX4 mRNA is associated with its translation since the DUX4 target PRAME 1 is induced as the DUX4 mRNA disappears.

Human FSHD myoblasts = assay: siRNA knock-down of UPF1 in FSHD myoblasts; type: cell-based
Protocol: Method for transfection of myoblasts with siUPF1 (siRNA against UPF1): Human FSHD myoblasts were plated for transfection at 30% confluency in F10 media containing 20% FBS and no antibiotics. siRNA targeting siUPF1 (ThermoScientific) was transfected at 100 nM final concentration using Lipofectamine 2000 according to manufacturers protocol. siLuciferase was used as a negative control. Following overnight incubation of cells with transfection complexes the cells were washed with PBS and fed fresh growth media: F10 media, 20% FBS, dexamethasone (1 uM) and fgf (10 ng/ml). When cultures reached confluency growth media was replaced with serum free differentiation media (F10 media, insulin and transferrin at 10 ug/ml each) and culture continued for 48 hours. Total RNA was isolated using Qiagen RNeasy columns and analysis for expression of Dux4 mRNA and for target gene activation was performed.

With C#CCN(C)Cc1ccccc1 [pargyline, N-Benzyl-N-methylprop-2-yn-1-amine] the “DUX4 mRNA expression” value (FSHD muscle cells; RT-PCR, 48 hours in differentiation medium, varying amounts, FIG. 5) was “dose-dependent inhibition of DUX4 expression” and the “abundance of DUX4-fl mRNA” value (FSHD muscle cells) was “decreases the abundance of DUX4-fl mRNA in a dose-dependent manner”.
For N[C@@H]1C[C@H]1c1ccccc1 (racemic) [tranylcypromine], the “abundance of DUX4-fl mRNA” value (FSHD muscle cells) was “had no inhibitory effect”.
For DUX4, the Fc range ([1]; Family with sequence similarity 90: FAM90A1, FAM90A2P, FAM90A6P, FAM90A7) was 9-19, the Fc range ([1]; KH homology domain containing family: KHDC1, KHDC1L) was 108-258 and the Fc range ([1]; Methyl-binding protein-like family: MBD3L2, MBD3L3, MBD3L5) was 197-310. For the same molecule, the Fc range ([1]; Preferentially expressed in melanoma family: PRAMEF1, PRAMEF2, PRAMEF4-15, PRAMEF17, PRAMEF20) was 9-269, the Fc range ([1]; Ret-finger Protein-like family: RFPL1, RFPL1S, RFPL2, RFPL3, RFPL4A, RFPL4B) was 20-336 and the Fc range ([1]; Tripartite motif-containing family: TRIM43, TRIM48, TRIM49, TRIM53, TRIM64) was 27-235. The Fc range ([1]; Zinc finger and SCAN domain containing family: ZSCAN4, ZSCAN5B, ZSCAN5D) was 13-320.
For Nc1ncn([C@@H]2O[C@H](CO)[C@@H](O)[C@H]2O)c(=O)n1 [5-azacytidine], the “expression of cancer testis antigens” value (HCT116 cells; RT-PCR heat map FIG. 3, HCT116 cells) was “robust induction” and the DUX4-fl expression (HCT116 cells; RT-PCR, HCT116 cells) was “induces the expression of DUX4-fl”.
For C[C@@H]1C[C@@H]([C@H](O)CC2CC(=O)NC(=O)C2)C(=O)[C@@H](C)C1 [cycloheximide], the “DUX4 mRNA” value (FSHD fibroblasts) was “significant increase in DUX4 mRNA”.
In the case of GAUGCAGUUCCGCUCCAUUUU [siUPF1], the “expression of DUX4 target gene ZSCAN4” value (Human FSHD myoblasts; RT-qPCR) is reported as “increases” and the “DUX4 mRNA” value (Human FSHD myoblasts; semiquantitative RT-PCR, differentiation medium, vs siluc) is reported as “at higher levels”.
